# Measured values published in publication PMC11845477, “Exploring the principles behind antibiotics with limited resistance” (Nature Communications, 2025).
# What was measured:
# [1] = system: K. pneumoniae ATCC 10031 (SEN) and K. pneumoniae ATCC 700603 (MDR); test: Frequency-of-resistance (FoR) assay, relative MIC of mutants; format: cell-based, Klebsiella pneumoniae; details: Klebsiella pneumoniae ATCC 10031 (KP-SEN)
# Outline: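 Spontaneous resistant mutants selected on antibiotic agar (≈10^10 cells, 48 h, 37 °C); MICs of ten picked colonies measured by 18 h broth microdilution (OD600 < 0.05 = inhibition) and expressed as MICevolved/MICancestor.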
# [2] = system: K. pneumoniae ATCC 10031 (SEN) and K. pneumoniae ATCC 700603 (MDR); test: Adaptive laboratory evolution (ALE), relative MIC of evolved lines; format: cell-based, Klebsiella pneumoniae
# Outline: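 Ten parallel populations per antibiotic–ancestor pair were evolved in MHB at 37 °C, starting near 50% growth-inhibiting drug. Every 72 h they were passaged into 0.5–2.5× increasing concentrations, keeping the highest-drug well with OD600 > 0.2.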
# [3] = KP-SEN (Klebsiella pneumoniae ATCC 10031), evolved line 1
# [4] = KP-SEN (Klebsiella pneumoniae ATCC 10031), evolved line 4
# [5] = KP-SEN (Klebsiella pneumoniae ATCC 10031), evolved line 8
# [6] = KP-SEN (Klebsiella pneumoniae ATCC 10031), evolved line 9
# [7] = KP-SEN, Klebsiella pneumoniae ATCC 10031, evolved line 5
smiles,measurement,setting,value
CC(C)c1ccc(Cn2ccc3c4c(N)nc(NC5CC5)nc4ccc32)cc1 [SCH79797],Relative MIC,"[1]; FoR assay, evolved line 1",1
same,Relative MIC,"[1]; FoR assay, evolved line 2",1
same,Relative MIC,"[1]; FoR assay, evolved line 3",1
same,MIC of evolved line,[1]; evolved line 1,4 µg/mL
same,MIC of evolved line,[1]; evolved line 2,4 µg/mL
same,MIC of evolved line,[1]; evolved line 3,4 µg/mL
same,Relative MIC,[1]; evolved line 1 versus ancestor,1
same,Relative MIC,[1]; evolved line 2 versus ancestor,1
same,Relative MIC,[1]; evolved line 3 versus ancestor,1
same,Relative MIC,"[2]; ALE, Klebsiella pneumoniae ATCC 10031 (KP-SEN), evolved line 1",16
same,Relative MIC,"[2]; ALE, Klebsiella pneumoniae ATCC 10031 (KP-SEN), evolved line 2",4
same,Relative MIC,"[2]; ALE, Klebsiella pneumoniae ATCC 10031 (KP-SEN), evolved line 3",2
same,Relative MIC,"[2]; ALE, Klebsiella pneumoniae ATCC 10031 (KP-SEN), evolved line 4",16
same,Relative MIC,"[2]; ALE, Klebsiella pneumoniae ATCC 10031 (KP-SEN), evolved line 5",32
same,Relative MIC,"[2]; ALE, Klebsiella pneumoniae ATCC 10031 (KP-SEN), evolved line 6",2
same,Relative MIC,"[2]; ALE, Klebsiella pneumoniae ATCC 10031 (KP-SEN), evolved line 7",4
same,Relative MIC,"[2]; ALE, Klebsiella pneumoniae ATCC 10031 (KP-SEN), evolved line 8",8
same,Relative MIC,"[2]; ALE, Klebsiella pneumoniae ATCC 10031 (KP-SEN), evolved line 9",8
same,Relative MIC,"[2]; ALE, Klebsiella pneumoniae ATCC 10031 (KP-SEN), evolved line 10",2
same,MIC of evolved line,"[2]; KP-SEN (K. pneumoniae ATCC 10031), evolved line 1 of the given antibiotic",64 µg/mL
same,Relative MIC,"[2]; KP-SEN (K. pneumoniae ATCC 10031), evolved line 1 vs ancestor",16
same,MIC of evolved line,"[2]; KP-SEN (K. pneumoniae ATCC 10031), evolved line 2 of the given antibiotic",16 µg/mL
same,Relative MIC,"[2]; KP-SEN (K. pneumoniae ATCC 10031), evolved line 2 vs ancestor",4
same,MIC of evolved line,"[2]; KP-SEN (K. pneumoniae ATCC 10031), evolved line 3 of the given antibiotic",8 µg/mL
same,Relative MIC,"[2]; KP-SEN (K. pneumoniae ATCC 10031), evolved line 3 vs ancestor",2
same,MIC of evolved line,"[2]; KP-SEN (K. pneumoniae ATCC 10031), evolved line 4 of the given antibiotic",64 µg/mL
same,Relative MIC,"[2]; KP-SEN (K. pneumoniae ATCC 10031), evolved line 4 vs ancestor",16
same,MIC of evolved line,"[2]; KP-SEN (K. pneumoniae ATCC 10031), evolved line 5 of the given antibiotic",128 µg/mL
same,Relative MIC,"[2]; KP-SEN (K. pneumoniae ATCC 10031), evolved line 5 vs ancestor",32
same,MIC of evolved line,"[2]; KP-SEN (K. pneumoniae ATCC 10031), evolved line 6 of the given antibiotic",8 µg/mL
same,Relative MIC,"[2]; KP-SEN (K. pneumoniae ATCC 10031), evolved line 6 vs ancestor",2
same,MIC of evolved line,"[2]; KP-SEN (K. pneumoniae ATCC 10031), evolved line 7 of the given antibiotic",16 µg/mL
same,Relative MIC,"[2]; KP-SEN (K. pneumoniae ATCC 10031), evolved line 7 vs ancestor",4
same,MIC of evolved line,"[2]; KP-SEN (K. pneumoniae ATCC 10031), evolved line 8 of the given antibiotic",32 µg/mL
same,Relative MIC,"[2]; KP-SEN (K. pneumoniae ATCC 10031), evolved line 8 vs ancestor",8
same,MIC of evolved line,"[2]; KP-SEN (K. pneumoniae ATCC 10031), evolved line 9 of the given antibiotic",32 µg/mL
same,Relative MIC,"[2]; KP-SEN (K. pneumoniae ATCC 10031), evolved line 9 vs ancestor",8
same,MIC of evolved line,"[2]; KP-SEN (K. pneumoniae ATCC 10031), evolved line 10 of the given antibiotic",8 µg/mL
same,Relative MIC,"[2]; KP-SEN (K. pneumoniae ATCC 10031), evolved line 10 vs ancestor",2
same,Relative MIC,[2]; [3],16
same,Relative MIC (log10),[2]; [3],1.204 log10
same,Relative MIC,"[2]; KP-SEN (Klebsiella pneumoniae ATCC 10031), evolved line 2",4
same,Relative MIC,"[2]; KP-SEN (Klebsiella pneumoniae ATCC 10031), evolved line 3",2
same,Relative MIC,[2]; [4],16
same,Relative MIC (log10),[2]; [4],1.204 log10
same,Relative MIC,"[2]; KP-SEN (Klebsiella pneumoniae ATCC 10031), evolved line 6",2
same,Relative MIC,[2]; [5],8
same,Relative MIC (log10),[2]; [5],0.9031 log10
same,Relative MIC,[2]; [6],8
same,Relative MIC (log10),[2]; [6],0.9031 log10
same,Relative MIC,"[2]; KP-SEN (Klebsiella pneumoniae ATCC 10031), evolved line 10",2
same,Relative MIC,[2]; [7],32
same,Relative MIC (log10),[2]; [7],1.505 log10
same,Relative MIC,"[2]; KP-SEN, Klebsiella pneumoniae ATCC 10031, evolved line 7",4
same,Relative MIC,"[2]; Klebsiella pneumoniae ATCC 10031 (KP-SEN), evolved line 1",16
same,Relative MIC,"[2]; Klebsiella pneumoniae ATCC 10031 (KP-SEN), evolved line 2",4
same,Relative MIC,"[2]; Klebsiella pneumoniae ATCC 10031 (KP-SEN), evolved line 3",2
same,Relative MIC,"[2]; Klebsiella pneumoniae ATCC 10031 (KP-SEN), evolved line 4",16
same,Relative MIC,"[2]; Klebsiella pneumoniae ATCC 10031 (KP-SEN), evolved line 5",32
same,Relative MIC,"[2]; Klebsiella pneumoniae ATCC 10031 (KP-SEN), evolved line 6",2
same,Relative MIC,"[2]; Klebsiella pneumoniae ATCC 10031 (KP-SEN), evolved line 7",4
same,Relative MIC,"[2]; Klebsiella pneumoniae ATCC 10031 (KP-SEN), evolved line 8",8
same,Relative MIC,"[2]; Klebsiella pneumoniae ATCC 10031 (KP-SEN), evolved line 9",8
same,Relative MIC,"[2]; Klebsiella pneumoniae ATCC 10031 (KP-SEN), evolved line 10",2
